These results are taken from paper PMC3764026, “Adaptive Evolution of Escherichia coli to an α-Peptide/β-Peptoid Peptidomimetic Induces Stable Resistance” (PLoS ONE, 2013).

Converted amounts (≈) assume the structure as drawn. Where two headings read alike, the source gives them in different places. Positions of bridges follow the written chain, without caps; N, C: chain ends. Non-standard residues stand in square brackets, D forms with d. Residues, ends and D or L forms follow the SMILES beside them. *: point of attachment. X1 = CC[C@H](C)CCCCC(=O)*; Dab = NCC[C@H](N)C(=O)O

Assay [1] concerns E. coli ATCC 25922 lineages adapted to peptidomimetic 1. In kind it is cell-based, Escherichia coli. The following applies: for cross-resistance to conventional antibiotics: any of the lineages (peptidomimetic- and polymyxin B-exposed), population MIC, data not shown. On the procedure: (§1) Continuous selection of resistance was performed for peptidomimetic 1 (Figure 1) and for the clinically relevant natural antimicrobial peptide, polymyxin B. A bacterial suspension of a single colony of E. coli ATCC 25922 was re-inoculated (10 µl) five times in unsupplemented MHB (990 µl). It was then re-inoculated in MHB supplemented with peptidomimetic 1 (ten lineages) or polymyxin B (ten lineages), and after ten re-inoculations at constant peptidomimetic or polymyxin B concentration, the concentrations were doubled. […] Four lineages grown in MHB with MilliQ water were included as control. Re-inoculations were performed twice a day, but were reduced to once a day when growth was slower as assessed by turbidity of the cultures. The total number of passages (supplemented with peptidomimetic/AMP) was 77 times equivalent to approx. 500 generations. For each increase in concentration the lineages were preserved as freezing stocks. Ten colony isolates were randomly selected from each lineage population at 32×MIC and preserved as freezing stocks.
(§2) MIC was determined by using the micro-dilution method according to guidelines of the Clinical and Laboratory Standards Institute. Peptidomimetic 1 and erythromycin 1∶2 serial dilutions were prepared from 1024 µg/mL stock solutions to give a final range of 512-0.5 µg/mL in the wells. Ampicillin 1∶2 serial dilutions were prepared from a 256 µg/mL stock solution to give a final range of 128-0.13 µg/mL in the wells. Polymyxin B and gentamicin 1∶2 serial dilutions were prepared from a 64 µg/mL stock solution to give a final range of 32-0.03 µg/mL in the wells. Also, 1∶2 serial dilutions of the AMPs KR-12, IsCTp, melittin and PEP-1-K were prepared from 64 µg/mL stock solutions to give a final range of 32-0.03 µg/mL in the wells; however this was performed in 1% peptone instead of in MHB since activity was drastically diminished in the latter (not shown).
(§3) The population lineages were tested for their susceptibility towards peptidomimetic 1, polymyxin B, gentamicin and ampicillin. Single-culture isolates selected from these populations were additionally tested against peptidomimetic 1, polymyxin B, erythromycin and the five reference AMPs. To estimate the level of cross-resistance to closely related peptidomimetics, MIC determinations were performed for peptidomimetics 2 and 3 (Figure 1) towards selected isolates. The bacterial suspensions were grown overnight in MHB at 37°C for determination of the population MIC, or individual isolates were grown overnight on non-selective BHI agar at 37°C. […] In all experiments, bacterial cells were suspended in 0.9% saline to give a turbidity of 0.13 at OD546 (approximately 1×10^8 CFU/mL) and diluted in MHB pH 7.4 to a final concentration of 5×10^5 CFU/mL in each well. Polypropylene plates (Nunc 442587) were used to minimize peptide binding, and the incubation time was 18–20 hours at 37°C. Incubation time was additionally extended up to 44 hours for the individual isolates due to a potential effect of growth rate on the outcome, but no effect was seen of this (not shown). MIC was found in a minimum of two technical (population MIC) or biological (isolate MIC) replicates as the lowest concentration of the AMP or antibiotic where no visible growth was observed.
(§4) Frozen stocks were reconditioned in unsupplemented MHB media for five transfers (∼35 generations) at 37°C. The heritability of resistance was established through MIC determination of bacterial populations as described above.

The test system of assay [2] is isolates from peptidomimetic 1-exposed E. coli ATCC 25922 lineages. The following applies: for change in MIC following acquisition of peptidomimetic resistance: isolate 2–7 vs wild type, biological duplicates; for cross-resistance: MIC as compared to the wild type: all twenty isolates from lineages no. 2 and 5, KR-12, IsCTp, melittin, PEP-1-K in 1% peptone instead of MHB. How it is done: as §1
MIC was determined by using the micro-dilution method according to guidelines of the Clinical and Laboratory Standards Institute. Peptidomimetic 1 and erythromycin 1∶2 serial dilutions were prepared from 1024 µg/mL stock solutions to give a final range of 512-0.5 µg/mL in the wells. Ampicillin 1∶2 serial dilutions were prepared from a 256 µg/mL stock solution to give a final range of 128-0.13 µg/mL in the wells. Polymyxin B and gentamicin 1∶2 serial dilutions were prepared from a 64 µg/mL stock solution to give a final range of 32-0.03 µg/mL in the wells.
as §3, with “Incubation time was additionally extended up to 44 hours for the individual isolates due to a potential effect of growth rate on the outcome, but no effect was seen of this (not shown).” left out

Assay [3] relates to Escherichia coli ATCC 25922. In words: Continuous selection experiment. The format is cell-based. On the procedure: as §1
Assay [4] has as its system E. coli ATCC 25922 control lineages. In kind it is cell-based, Escherichia coli. The conditions noted are these: two technical duplicates. How it is done:
as §1, §2, §3, §4

Assay [5] has as its system E. coli ATCC 25922 lineages adapted to polymyxin B. In kind it is cell-based, Escherichia coli. The following applies: for MIC against polymyxin after 35 generations w/o selection / MIC against polymyxin after selection: two technical duplicates; for MIC against polymyxin after selection: MHB pH 7.4, 37°C, 18–20 h. How it is done:
as §1, §2, §3, §4

`CC1(C)S[C@@H]2[C@H](NC(=O)[C@H](N)c3ccccc3)C(=O)N2[C@H]1C(=O)O` [ampicillin, reference compound]: the “cross-resistance to conventional antibiotics” value in assay [1] was “No cross-resistance”.
With `CC[C@H]1OC(=O)[C@H](C)[C@@H](O[C@H]2C[C@@](C)(OC)[C@@H](O)[C@H](C)O2)[C@H](C)[C@@H](O[C@@H]2O[C@H](C)C[C@H](N(C)C)[C@H]2O)[C@](C)(O)C[C@@H](C)C(=O)[C@H](C)[C@@H](O)[C@]1(C)O` [erythromycin, reference compound], the “change in susceptibility as compared to the wild type” value in assay [2] (the five highly resistant isolates of lineage no. 2 carrying the macrolide transporter mutation, not shown) is on record as “No change”.
On to `CNC(C)C1CCC(N)C(OC2C(N)CC(N)C(OC3OCC(C)(O)C(NC)C3O)C2O)O1` (centres unmarked) [gentamicin, reference compound], for which the “cross-resistance to conventional antibiotics” value in assay [1] is listed as “No cross-resistance”.
On to `OO` [hydrogen peroxide, reference compound], for which the “change in MIC following acquisition of peptidomimetic resistance” value in assay [2] was “No changes”.
In the case of `CC[C@H](C)CCCCC(=O)N[C@@H](CCN)C(=O)N[C@H](C(=O)N[C@@H](CCN)C(=O)N[C@H]1CCNC(=O)[C@H]([C@@H](C)O)NC(=O)[C@H](CCN)NC(=O)[C@H](CCN)NC(=O)[C@H](CC(C)C)NC(=O)[C@@H](Cc2ccccc2)NC(=O)[C@H](CCN)NC1=O)[C@@H](C)O` [polymyxin B, Polymyxin B] (X1-[Dab]T[Dab][Dab][Dab][dF]L[Dab][Dab]T; lactam 4-C (inferred); N-terminus assumed), the “lineages that eventually grew at 32×wt MIC” value in assay [3] (ten lineages per agent, from 1/16×wt MIC, doubled stepwise, 77 inoculations, approx. 500 generations, 32×wt MIC = 256 µg/mL peptidomimetic 1, 32 µg/mL polymyxin B) is given as “eight out of ten”. In addition, in assay [3] (two controls per agent, 32 µg/mL peptidomimetic 1 or 4 µg/mL polymyxin B), the “growth of unexposed control lineages at 4×wt MIC” value is listed as “one of the two controls”. The “cross-resistance: MIC as compared to the wild type” value in assay [2] (not shown) is “did not find increased MIC values”. For the same compound, the “MIC against polymyxin after 35 generations w/o selection” value in assay [4] (Control 1 lineage (MilliQ water)) is 0.5 µg/mL (≈ 0.415 µM); in assay [4] (Control 2 lineage (MilliQ water)) it was 0.5 to 1 µg/mL; in assay [5] (polymyxin B-exposed lineage 2, five passages in unsupplemented MHB) it was 32 µg/mL (≈ 26.6 µM); in assay [5] (polymyxin B-exposed lineage 3, five passages in unsupplemented MHB) it was 32 µg/mL (≈ 26.6 µM); in assay [5] (polymyxin B-exposed lineage 4, five passages in unsupplemented MHB), 32 µg/mL (≈ 26.6 µM); in assay [5] (polymyxin B-exposed lineage 5, five passages in unsupplemented MHB) it was 32 µg/mL (≈ 26.6 µM). The “MIC against polymyxin after 35 generations w/o selection” value was determined as 32 µg/mL (≈ 26.6 µM) in assay [5] (polymyxin B-exposed lineage 6, five passages in unsupplemented MHB); 32 µg/mL (≈ 26.6 µM) in assay [5] (polymyxin B-exposed lineage 8, five passages in unsupplemented MHB); 32 µg/mL (≈ 26.6 µM) in assay [5] (polymyxin B-exposed lineage 9, five passages in unsupplemented MHB); 32 µg/mL (≈ 26.6 µM) in assay [5] (polymyxin B-exposed lineage 10, five passages in unsupplemented MHB). The “MIC against polymyxin after selection” value in assay [4] (Control 1 lineage (MilliQ water, no polymyxin)) is on record as 8 µg/mL (≈ 6.65 µM); in assay [4] (Control 2 lineage (MilliQ water, no polymyxin)), 1 µg/mL (≈ 0.831 µM); in assay [5] (polymyxin B-exposed lineage 2, population outgrown at 32×wt MIC), 32 µg/mL (≈ 26.6 µM); in assay [5] (polymyxin B-exposed lineage 3, population outgrown at 32×wt MIC) it was 32 µg/mL (≈ 26.6 µM); in assay [5] (polymyxin B-exposed lineage 4, population outgrown at 32×wt MIC) it was 32 µg/mL (≈ 26.6 µM); in assay [5] (polymyxin B-exposed lineage 5, population outgrown at 32×wt MIC) it was 32 µg/mL (≈ 26.6 µM). Further, the “MIC against polymyxin after selection” value in assay [5] (polymyxin B-exposed lineage 6, population outgrown at 32×wt MIC) is on record as 32 µg/mL (≈ 26.6 µM); in assay [5] (polymyxin B-exposed lineage 8, population outgrown at 32×wt MIC) it was 32 µg/mL (≈ 26.6 µM); in assay [5] (polymyxin B-exposed lineage 9, population outgrown at 32×wt MIC), 32 µg/mL (≈ 26.6 µM); in assay [5] (polymyxin B-exposed lineage 10, population outgrown at 32×wt MIC), 32 µg/mL (≈ 26.6 µM). Further, the “cross-resistance after removal of the selection pressure” value in assay [1] (peptidomimetic-exposed lineages, ~35 generations unsupplemented, became similar to controls, not shown) is “lost”. For the same compound, the “increase in MIC as compared to the wild-type strain” value in assay [5] (the eight polymyxin B-exposed lineages after selection) came to 32 fold.
As for lysozyme, in assay [2], the “change in MIC following acquisition of peptidomimetic resistance” value was “No changes”.
In the case of melittin [melitin, reference compound], the “cross-resistance: MIC as compared to the wild type” value in assay [2] (not shown) is on record as “did not find increased MIC values”.
Same read-out and setting: the entry for protamine [reference compound] is “did not find increased MIC values”.
